# Results taken from the Biogen ADME set (Fang et al. 2023).
# Details: for aqueous solubility: pH 6.8
Compound,MDR1-MDCK efflux ratio,"intrinsic clearance, human liver microsomes","intrinsic clearance, rat liver microsomes",aqueous solubility,"fraction unbound, human plasma","fraction unbound, rat plasma"
CS(=O)(=O)NC[C@H]1CC[C@H](Nc2nc3c(s2)CCSc2ccccc2-3)CC1,1.81,21.5 mL/min/kg,247 mL/min/kg,–,–,–
CCN(CC)CCCNc1ncc(-c2cc(C)no2)c(-c2ccco2)n1,17.5,5.13 mL/min/kg,312 mL/min/kg,69.8 µg/mL,–,–
Cc1cc(Nc2ccc(F)cn2)cc(C2CCN(C(=O)CCn3ncc4ccccc43)C2)n1 (stereo unspecified),60,345 mL/min/kg,2300 mL/min/kg,–,–,–
Cc1ccc(C)c(C(=O)Nc2cnc3c(c2)c(C)nn3C)c1,0.67,6.52 mL/min/kg,129 mL/min/kg,2.33 µg/mL,–,–
CC#CCNc1ccc(-n2cnnn2)c(C)c1,0.59,21.1 mL/min/kg,131 mL/min/kg,19.4 µg/mL,–,–
CC(=O)N(c1ccc(C)cc1)c1nc(Cn2ccnc2)cs1,2.87,31.9 mL/min/kg,210 mL/min/kg,43.6 µg/mL,–,–
CCCCOc1ccccc1-c1cc(C(=O)NCCc2cccs2)[nH]n1,0.459,–,–,0.37 µg/mL,–,–
CCOc1ccc(C(=O)Cn2c(=O)n(-c3ccc(F)cc3)c3nc(C)nc(C(N)=O)c32)cc1,0.926,–,–,0.39 µg/mL,–,–
O=C(c1cc(F)ccc1O)N1CCN(C2CCOCC2)CC1,–,≤ 4.74 mL/min/kg,201 mL/min/kg,–,–,–
CN1CCC(n2ncc3[nH]c(-c4ccc5ccccc5c4)nc32)CC1,13.9,23.4 mL/min/kg,928 mL/min/kg,42.1 µg/mL,–,–
N#Cc1cnn(-c2ccc(F)cc2)c1N,–,–,–,29.2 µg/mL,–,–
Cc1ccc(-n2ccnc2-c2ccoc2)c2cccnc12,0.946,55.1 mL/min/kg,579 mL/min/kg,19.9 µg/mL,–,–
Cc1cnc(NCC2(CO)CCCC2)nc1N(C)C,0.95,29.7 mL/min/kg,1050 mL/min/kg,–,–,–
COCCCNc1ncc(-c2ccsc2)c(-c2nc(C)c(C)s2)n1,–,23.6 mL/min/kg,98.1 mL/min/kg,–,–,–
COc1cccc(OCCCn2cncc2-c2cc3c(cc2C)n(C)c(=O)n3C)c1,143,38.4 mL/min/kg,352 mL/min/kg,55.4 µg/mL,–,–
COc1cc(C(=O)O)c(N)c(OC)c1OC,1.69,≤ 4.74 mL/min/kg,≤ 10.7 mL/min/kg,53.9 µg/mL,–,–
CN(CCc1ccccn1)c1cnc2ccccc2n1,0.64,86.3 mL/min/kg,862 mL/min/kg,44.5 µg/mL,–,–
CC(C)(C)NC(=O)c1cncn1C1CCN(c2ccc(-c3nnc(C(F)(F)F)o3)cn2)CC1,8.45,≤ 4.74 mL/min/kg,25.3 mL/min/kg,61.1 µg/mL,–,–
Cc1ccc(S(=O)(=O)Nc2ccccc2-c2nc3ccccc3[nH]2)cc1,–,122 mL/min/kg,541 mL/min/kg,–,–,–
Clc1ccccc1CNCc1ccc2c(c1)OCCO2,0.443,479 mL/min/kg,2170 mL/min/kg,24.5 µg/mL,–,–
Cc1cc(C(=O)NCC2CCN(c3ccc4ccccc4n3)CC2)cnc1C,2.19,58.1 mL/min/kg,477 mL/min/kg,–,–,–
Cc1cc(C)n(-c2cc(Nc3ccccc3C)ncn2)n1,0.489,59.7 mL/min/kg,286 mL/min/kg,1.74 µg/mL,–,–
CC#CC(=O)N[C@H]1CCCN(c2c(F)cc(C(N)=O)c3[nH]c(C)c(C)c23)C1,7.25,25 mL/min/kg,238 mL/min/kg,10.8 µg/mL,0.0146,0.00229
Cc1nccc(-c2cccc(NCC(=O)N3CCCCCCC3)c2)n1,0.748,302 mL/min/kg,2050 mL/min/kg,55.6 µg/mL,–,–
Cn1c(C(=O)N2CCN(CCc3ccccc3)C(=O)C2)cc(=O)n(C)c1=O,8.33,≤ 4.74 mL/min/kg,31.7 mL/min/kg,59.7 µg/mL,–,–
CCc1cc2c(N(C)CCO)ncnc2s1,0.676,73.6 mL/min/kg,139 mL/min/kg,40.9 µg/mL,–,–
COc1ccc(CCC(=O)N2CCCNCC2)cc1,2.76,≤ 4.74 mL/min/kg,≤ 10.7 mL/min/kg,35.7 µg/mL,–,–
Cc1cnc(N2CCSCC2)nc1N1CCSCC1,0.691,193 mL/min/kg,2640 mL/min/kg,–,–,–
